# Test results from US7691856B2, “Thiadiazoledioxides and thiadiazoleoxides as CXC- and CC-chemokine receptor ligands” (Schering Corporation, priority 2002, dated 2010).
# Assays:
# [1] = molecular target: T1, hCXCR2 (Homo sapiens, UniProt P25025); assay: CXCR2 SPA assay ([125I]-IL-8 binding, hCXCR2-CHO membranes); settings: [125I]-IL-8 binding to hCXCR2-CHO membranes
# T1 construct: purchased Biosignal / Biosignal Packard; host or cells: CHO cells over-expressing hCXCR2 (membranes)
# T1 sequence (P25025 1-360): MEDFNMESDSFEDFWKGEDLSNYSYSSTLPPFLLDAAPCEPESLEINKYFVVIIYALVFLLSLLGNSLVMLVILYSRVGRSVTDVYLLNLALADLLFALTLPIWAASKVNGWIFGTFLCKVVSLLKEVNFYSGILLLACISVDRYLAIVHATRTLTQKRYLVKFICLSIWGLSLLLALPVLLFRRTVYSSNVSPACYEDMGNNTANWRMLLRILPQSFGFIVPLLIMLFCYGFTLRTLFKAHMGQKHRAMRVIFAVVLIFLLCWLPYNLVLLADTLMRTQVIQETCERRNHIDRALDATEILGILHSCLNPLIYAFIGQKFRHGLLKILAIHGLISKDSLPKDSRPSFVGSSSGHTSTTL
# Description: For each well of a 96 well plate, a reaction mixture of 4 μg hCXCR2-CHO overexpressing membranes (Biosignal) and 200 μg/well WGA-SPA beads (Amersham) in 100 μl was prepared in CXCR2 assay buffer (25 mM HEPES, pH 7.4, 2 mM CaCl2, 1 mM MgCl2). A 0.4 nM stock of ligand, [125I]-IL-8 (NEN), was prepared in the CXCR2 assay buffer. 20× stock solutions of test compounds were prepared in DMSO (Sigma). A 6× stock solution of GRO-α (R&D) was prepared in CXCR2 assay buffer. The above solutions were added to a 96-well assay plate (PerkinElmer or Corning) as follows: 10 μl test compound or DMSO, 40 ul CXCR2 assay buffer or GRO-α stock, 100 μl of reaction mixture, 50 μl of ligand stock (Final [Ligand]=0.1 nM). When 40× stock solutions of test compounds in DMSO were prepared, then the above protocol was used except instead 5 μl test compound or DMSO and 45 μl CXCR2 assay buffer were used. […]
# For each 50 μl reaction, a working stock of 0.031 μg/μl hCXCR2-CHO over-expressing membranes with a specific activity of 0.4 pmol/mg (Biosignal Packard) and 2.5 μg/μl WGA-SPA beads (Perkin Elmer Life Sciences) was prepared in CXCR2 assay buffer (25 mM HEPES, pH 7.4, 2.0 mM CaCl2, 1 mM MgCl2) (Sigma). […] The assay plates were incubated for 2 hours before cpm/well were determined in a Microbeta Trilux counter (Perkin Elmer Life Sciences). IC50 values were quantified using nonlinear regression analysis in GraphPad Prism. […]
# For each 200 μl reaction, a working stock of 0.02 μg/μl hCXCR2-CHO over-expressing membranes with a specific activity of 0.6 pmol/mg (Biosignal Packard) and 2 μg/μl WGA-SPA beads (Perkin Elmer Life Sciences) was prepared in CXCR2 assay buffer (25 mM HEPES, pH 7.4, 2.0 mM CaCl2, 1 mM MgCl2) (Sigma). […] The assay plates were incubated for 2 hours before cpm/well were determined in a Microbeta Trilux counter (Perkin Elmer Life Sciences). IC50 values were quantified using nonlinear regression analysis in GraphPad Prism.
# [2] = molecular target: T2, hCXCR1 (Homo sapiens, UniProt P25024); assay: CXCR1 SPA assay ([125I]-IL-8 binding, hCXCR1-CHO membranes); settings: [125I]-IL-8 binding to hCXCR1-CHO membranes
# T2 construct: purchased Biosignal / Biosignal Packard; alternatively Euroscreen; host or cells: CHO cells over-expressing hCXCR1 (membranes)
# T2 sequence (P25024 1-350): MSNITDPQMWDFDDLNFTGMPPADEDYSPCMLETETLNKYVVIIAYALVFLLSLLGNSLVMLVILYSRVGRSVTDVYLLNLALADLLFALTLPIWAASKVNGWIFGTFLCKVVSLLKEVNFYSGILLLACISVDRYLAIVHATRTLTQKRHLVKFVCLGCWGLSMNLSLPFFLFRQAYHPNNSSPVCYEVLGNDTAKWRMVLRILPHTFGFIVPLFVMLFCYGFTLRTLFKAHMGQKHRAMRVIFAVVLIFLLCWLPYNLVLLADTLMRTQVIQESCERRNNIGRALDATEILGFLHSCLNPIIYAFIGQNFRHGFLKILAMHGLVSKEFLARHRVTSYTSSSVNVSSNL
# Description: For each well of a 96 well plate, a reaction mixture of 10 μg hCXCR1-CHO overexpressing membranes (Biosignal) and 200 μg/well WGA-SPA beads (Amersham) in 100 μl was prepared in CXCR1 assay buffer (25 mM HEPES, pH 7.8, 2 mM CaCl2, 1 mM MgCl2, 125 mM NaCl, 0.1% BSA) (Sigma). A 0.4 nM stock of ligand, [125I]-IL-8 (NEN) was prepared in the CXCR1 assay buffer. 20× stock solutions of test compounds were prepared in DMSO (Sigma). A 6× stock solution of IL-8 (R&D) was prepared in […] assay buffer. The above solutions were added to a 96-well assay plate (PerkinElmer) as follows: 10 μl test compound or DMSO, 40 μl CXCR1 assay buffer or IL-8 stock, 100 μl of reaction mixture, 50 μl of ligand stock (Final [Ligand]=0.1 nM). The assay plates were shaken for 5 minutes on plate shaker, then incubated for 8 hours before cpm/well were determined in Microbeta Trilux counter (PerkinElmer). % Inhibition of Total binding-NSB (250 nM IL-8) was determined for IC50 values.
# Alternative CXCR1 SPA Assay
# Protocol using CXCR1-expressing membranes from Biosignal Packard
# For each 50 μl reaction, a working stock of 0.25 μg/μl hCXCR1-CHO over-expressing membranes with a specific activity of 0.05 pmol/mg (Biosignal Packard) and 25 μg/μl WGA-SPA beads (Perkin Elmer Life Sciences) was prepared in CXCR1 assay buffer (25 mM HEPES, pH 7.8, 0.1 mM CaCl2, 1 mM MgCl2, 100 mM NaCl) (Sigma). […] The assay plates were incubated for 4 hours before cpm/well were determined in a Microbeta Trilux counter (Perkin Elmer Life Sciences). IC50 values were quantified using nonlinear regression analysis in GraphPad Prism. […]
# For each 50 μl reaction, a working stock of 0.025 μg/μl hCXCR1-CHO over-expressing membranes with a specific activity of 3.47 pmol/mg (Euroscreen) and 5 μg/μl WGA-SPA beads (Perkin Elmer Life Sciences) was prepared in CXCR1 assay buffer (25 mM HEPES, pH 7.8, 2.0 mM CaCl2, 1 mM MgCl2, 125 mM NaCl) (Sigma). […] The assay plates were incubated for 4 hours before cpm/well were determined in a Microbeta Trilux counter (Perkin Elmer Life Sciences). […]
# [3] = molecular target: T3, CCR7 (Homo sapiens, UniProt P32248); assay: CCR7 [35S]GTPγS exchange assay (SPA, Ba/F3-CCR7 membranes)
# T3 sequence (P32248 25-378): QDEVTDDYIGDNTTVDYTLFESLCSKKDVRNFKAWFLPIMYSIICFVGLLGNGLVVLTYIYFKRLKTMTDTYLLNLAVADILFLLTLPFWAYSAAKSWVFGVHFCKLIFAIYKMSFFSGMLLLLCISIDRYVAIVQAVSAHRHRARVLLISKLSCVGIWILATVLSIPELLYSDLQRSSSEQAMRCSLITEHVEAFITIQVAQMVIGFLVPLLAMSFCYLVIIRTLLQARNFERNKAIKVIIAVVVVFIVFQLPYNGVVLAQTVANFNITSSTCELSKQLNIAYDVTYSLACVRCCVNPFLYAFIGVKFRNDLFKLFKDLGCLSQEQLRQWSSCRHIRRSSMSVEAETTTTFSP
# Description: CCR7 [^35S]GTPγS Exchange Assay.
# The exchange of guanosine 5′-[γ-^35S]triphospate ([^35S]GTPγS, triethylammonium salt; specific activity 1250 Ci/mmol; NEN Boston, Mass.) was measured using a scintillation proximity assay (SPA) as previously described (Cox, et. al., Mol. Pharmacol., 59, 2001, 707-15). For each assay point, 2 μg of membrane was preincubated for 30 min at room temperature with 200 μg wheat germ agglutinin-coated SPA beads (WGA-SPA; Amersham, Arlington Heights, Ill.) in SPA binding buffer (50 mM HEPES, 10 mM MgCl2, 1 mM EDTA, 100 mM NaCl, 0.1% BSA, pH 7.6). The beads and membranes were transferred to a 96-well Isoplate (Wallac, Gaithersburg, Md.) and incubated with 10 μM guanosine 5′-diphosphate (GDP) in the presence or absence of 2 nM MIP-30 and/or compounds for 60 min at room temperature. The incubation continued for another 60 min. following the addition of 0.1 nM [^35S]GTPγS. Membrane-bound [^35S]GTPγS was measured using a 1450 Microbeta Trilux counter (Wallac, Gaithersburg, Md.).
Structure (SMILES),Ki [1] [µM],Ki [2] [µM],EC50 [3] [µM]
Cc1cc([C@H](Nc2n[s+]([O-])nc2Nc2cccc(C(=O)N(C)C)c2O)C(C)C)oc1C (stereo partly drawn) [Example 201.9],0.0027,0.05,
CC[C@@H](Nc1n[s+]([O-])nc1Nc1cccc(C(=O)N(C)C)c1O)c1cc(C(C)C)co1 (stereo partly drawn) [Example 201.1],0.0035,0.123,
Cc1ccc([C@H](NC2=NS(=O)(=O)N=C2Nc2csc(S(=O)(=O)N3CCOCC3)c2O)C(C)(C)C)o1 [Example 2066],,,0.016
CCC(C)(C)[C@@H](NC1=NS(=O)(=O)N=C1Nc1cccc(C(=O)N(C)C)c1O)c1ccc(C)o1 [Example 2106],,,0.012
CC(C)c1coc([C@H](NC2=NS(=O)(=O)N=C2Nc2ccc(Br)c(C(=O)N(C)C)c2O)C(C)(C)C)c1 [Example 56],0.007,0.004,
CCN(CC)S(=O)(=O)c1scc(NC2=NS(=O)(=O)N=C2N[C@@H](c2ccc(C)o2)C(C)(C)C)c1O [Example 2065],,,0.013
